In patent publication US20250002507A1, “7,8-DIHYDRO-5H-1,6-NAPHTHYRIDINE DERIVATIVES AS POSITIVE ALLOSTERIC MODULATORS OF THE MUSCARINIC ACETYLCHOLINE RECEPTOR M4 FOR TREATING NEUROLOGICAL AND PSYCHIATRIC DISORDERS” (Vanderbilt University, priority 2021, published 2025):

Target: T1, Human M4 (Homo sapiens, UniProt P08173)
T1 construct: expressed in transfected cells
T1 sequence (P08173 1-479): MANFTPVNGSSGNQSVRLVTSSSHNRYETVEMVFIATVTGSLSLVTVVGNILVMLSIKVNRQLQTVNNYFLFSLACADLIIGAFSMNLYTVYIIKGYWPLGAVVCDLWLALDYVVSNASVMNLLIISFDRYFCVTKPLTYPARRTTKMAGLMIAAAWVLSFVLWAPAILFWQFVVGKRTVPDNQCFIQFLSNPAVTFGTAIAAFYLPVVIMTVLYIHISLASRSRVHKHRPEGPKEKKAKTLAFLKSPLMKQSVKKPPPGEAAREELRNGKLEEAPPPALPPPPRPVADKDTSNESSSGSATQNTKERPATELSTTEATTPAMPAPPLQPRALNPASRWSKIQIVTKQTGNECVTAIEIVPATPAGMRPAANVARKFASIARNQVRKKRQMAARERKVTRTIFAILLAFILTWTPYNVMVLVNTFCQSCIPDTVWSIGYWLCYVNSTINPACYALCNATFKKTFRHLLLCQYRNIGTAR
Experiment: mAChR M4 cell-based functional assay (calcium flux, potentiation of EC20 acetylcholine response), hM4-Gqi5 CHO-K1 cells
Details: Table 4; for Emax at 30 µM: CHO-K1, Human M4, % ACh maximum at 30 μM, read-out: Emax (% ACh maximum at 30 μM); for EC50: potentiation of EC20 acetylcholine response, calcium flux, CHO-K1 cells, read-out: Human M4 EC50
Procedure, shortened: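 Positive allosteric modulation was scored as a concentration-dependent rise in the response to an EC20 dose of acetylcholine, added 144 s after the compound. Human M4-Gqi5 CHO-K1 cells carried Fluo-4 dye, and compounds ran as 11-point, 3-fold dilution series. EC50 and Emax came from four-parameter logistic fits of the FDSS fluorescence-ratio traces.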

| SMILES | Emax at 30 µM [%] | EC50 [µM] |
| --- | --- | --- |
| Cc1cc2nnc(C(F)(F)F)n2nc1N1CCc2ncc(N3CCOC(c4ccccn4)C3)cc2C1 (stereo not shown) [Compound 326, 4-(6-(7-methyl-3-(trifluoromethyl)-[1,2,4]triazolo[4,3-b]pyridazin-6-yl)-5,6,7,8-tetrahydro-1,6-naphthyridin-3-yl)-2-(pyridin-2-yl)morpholine] | 62 | 2.08 |
| Cc1cc2nnc(C(F)(F)F)n2nc1N1CCc2ncc(N3CCOC(c4cccnc4)C3)cc2C1 (stereo not shown) [Compound 329, 4-(6-(7-methyl-3-(trifluoromethyl)-[1,2,4]triazolo[4,3-b]pyridazin-6-yl)-5,6,7,8-tetrahydro-1,6-naphthyridin-3-yl)-2-(pyridin-3-yl)morpholine] | 80 | 1.49 |
| Cc1cc2nncn2nc1N1Cc2cc(N3CCOCC3)cnc2C(C)C1 (stereo not shown) [Compound 330, 4-(8-methyl-6-(7-methyl-[1,2,4]triazolo[4,3-b]pyridazin-6-yl)-5,6,7,8-tetrahydro-1,6-naphthyridin-3-yl)morpholine] | 83 | 2.15 |
| Cc1cc2nncn2nc1N1CCc2ncc(N3CCN(C)C(=O)C3)cc2C1 [Compound 332, 1-methyl-4-(6-(7-methyl-[1,2,4]triazolo[4,3-b]pyridazin-6-yl)-5,6,7,8-tetrahydro-1,6-naphthyridin-3-yl)piperazin-2-one] | 71 | 2.59 |
| Cc1c(N2CCc3ncc(N4CCN(C)C(=O)C4)cc3C2)nn2cnnc2c1C [Compound 333, 4-(6-(7,8-dimethyl-[1,2,4]triazolo[4,3-b]pyridazin-6-yl)-5,6,7,8-tetrahydro-1,6-naphthyridin-3-yl)-1-methylpiperazin-2-one] | 52 | 1.34 |
| Cc1cc2nncn2nc1N1CCc2ncc(C(C)(O)C(F)(F)F)cc2C1 (stereo not shown) [Compound 335, 1,1,1-trifluoro-2-(6-(7-methyl-[1,2,4]triazolo[4,3-b]pyridazin-6-yl)-5,6,7,8-tetrahydro-1,6-naphthyridin-3-yl)propan-2-ol] | 77 | 1.7 |
| CCOC(=O)c1c(C)nc2cc(C)c(N3CCc4ncc(C(F)(F)F)cc4C3)nn12 [Compound 337, ethyl 2,7-dimethyl-6-(3-(trifluoromethyl)-7,8-dihydro-1,6-naphthyridin-6(5H)-yl)imidazo[1,2-b]pyridazine-3-carboxylate] | 61 | 1.61 |
| FC(F)(F)c1cnc2c(c1)CN(c1nn3c(C(F)(F)F)nnc3c3ccccc13)CC2 [Compound 338, 3-(trifluoromethyl)-6-(3-(trifluoromethyl)-7,8-dihydro-1,6-naphthyridin-6(5H)-yl)-[1,2,4]triazolo[3,4-a]phthalazine] | 84 | 5.4 |
| CCOC(=O)c1c(C)nc2c(C)c(C)c(N3CCc4ncc(C(F)(F)F)cc4C3)nn12 [Compound 339, Ethyl 2,7,8-trimethyl-6-(3-(trifluoromethyl)-7,8-dihydro-1,6-naphthyridin-6(5H)-yl)imidazo[1,2-b]pyridazine-3-carboxylate] | 67 | 1.9 |
| FC(F)(F)c1cnc2c(c1)CN(c1nn3cnnc3c3c1CCCC3)CC2 [Compound 345, 6-(3-(trifluoromethyl)-7,8-dihydro-1,6-naphthyridin-6(5H)-yl)-7,8,9,10-tetrahydro-[1,2,4]triazolo[3,4-a]phthalazine] | 63 | 1.46 |
| Cc1c(C2CC2)c(N2CCc3ncc(C(F)(F)F)cc3C2)nn2cnnc12 [Compound 346, 6-(7-Cyclopropyl-8-methyl-[1,2,4]triazolo[4,3-b]pyridazin-6-yl)-3-(trifluoromethyl)-5,6,7,8-tetrahydro-1,6-naphthyridine] | 70 | 2.11 |
| Cc1c(C2CC2)c(N2CCc3ncc(N4CCO[C@H](C)C4)cc3C2)nn2cnnc12 [Compound 348, (R)-4-(6-(7-cyclopropyl-8-methyl-[1,2,4]triazolo[4,3-b]pyridazin-6-yl)-5,6,7,8-tetrahydro-1,6-naphthyridin-3-yl)-2-methylmorpholine] | 66 | 1.85 |
| COCc1c(C)c(N2CCc3ncc(C(F)(F)F)cc3C2)nn2cnnc12 [Compound 350, 6-(8-(Methoxymethyl)-7-methyl-[1,2,4]triazolo[4,3-b]pyridazin-6-yl)-3-(trifluoromethyl)-5,6,7,8-tetrahydro-1,6-naphthyridine] | 77 | 5.11 |

More lines, in order of falling EC50, values ahead:

| Emax at 30 µM [%] | EC50 [µM] | SMILES |
| --- | --- | --- |
| 68 | 1.31 | Cc1c(N2CCc3ncc(N4CCOC(c5ccccn5)C4)cc3C2)nn2c(C(F)(F)F)nnc2c1C (stereo not shown) [Compound 327, 4-(6-(7,8-dimethyl-3-(trifluoromethyl)-[1,2,4]triazolo[4,3-b]pyridazin-6-yl)-5,6,7,8-tetrahydro-1,6-naphthyridin-3-yl)-2-(pyridin-2-yl)morpholine] |
| 61 | 0.788 | Cc1ccc(-c2cnc3c(c2)CN(c2nn4cnnc4c(C)c2C2CC2)CC3)cn1 [Compound 347, 6-(7-cyclopropyl-8-methyl-[1,2,4]triazolo[4,3-b]pyridazin-6-yl)-3-(6-methylpyridin-3-yl)-5,6,7,8-tetrahydro-1,6-naphthyridine] |
| 94 | 0.7 | Cc1c(N2Cc3cc(N4CCOCC4)cnc3C(C)C2)nn2cnnc2c1C (stereo not shown) [Compound 331, 4-(6-(7,8-dimethyl-[1,2,4]triazolo[4,3-b]pyridazin-6-yl)-8-methyl-5,6,7,8-tetrahydro-1,6-naphthyridin-3-yl)morpholine] |
| 76 | 0.623 | Cc1c(N2CCc3ncc(N4CCOC(c5cccnc5)C4)cc3C2)nn2c(C(F)(F)F)nnc2c1C (stereo not shown) [Compound 328, 4-(6-(7,8-dimethyl-3-(trifluoromethyl)-[1,2,4]triazolo[4,3-b]pyridazin-6-yl)-5,6,7,8-tetrahydro-1,6-naphthyridin-3-yl)-2-(pyridin-3-yl)morpholine] |
| 73 | 0.547 | c1cc2n(n1)CCCN2c1cnc2c(c1)CN(c1nn3cnnc3c3c1CCCC3)CC2 [Compound 344, 6-(3-(6,7-dihydropyrazolo[1,5-a]pyrimidin-4(5H)-yl)-7,8-dihydro-1,6-naphthyridin-6(5H)-yl)-7,8,9,10-tetrahydro-[1,2,4]triazolo[3,4-a]phthalazine] |
| 63 | 0.521 | Cc1cc2cnc(C)n2nc1N1CCc2ncc(C(F)(F)F)cc2C1 [Compound 341, 6-(3,7-dimethylimidazo[1,5-b]pyridazin-2-yl)-3-(trifluoromethyl)-5,6,7,8-tetrahydro-1,6-naphthyridine] |
| 81 | 0.492 | Cc1cc2cncn2nc1N1CCc2ncc(-c3cn(C)nc3C)cc2C1 [Compound 342, 3-(1,3-dimethyl-1H-pyrazol-4-yl)-6-(3-methylimidazo[1,5-b]pyridazin-2-yl)-5,6,7,8-tetrahydro-1,6-naphthyridine] |
| 84 | 0.431 | Cc1cc2cncn2nc1N1CCc2ncc(C(F)(F)F)cc2C1 [Compound 340, 6-(3-methylimidazo[1,5-b]pyridazin-2-yl)-3-(trifluoromethyl)-5,6,7,8-tetrahydro-1,6-naphthyridine] |
| 72 | 0.359 | CCOC(=O)c1c(C)nc2cc(C)c(N3CCc4ncc(N5CCCn6nccc65)cc4C3)nn12 [Compound 336, ethyl 6-(3-(6,7-dihydropyrazolo[1,5-a]pyrimidin-4(5H)-yl)-7,8-dihydro-1,6-naphthyridin-6(5H)-yl)-2,7-dimethylimidazo[1,2-b]pyridazine-3-carboxylate] |
| 74 | 0.234 | Cc1cc2nncn2nc1N1CCc2ncc(CC(F)(F)F)cc2C1 [Compound 334, 6-(7-methyl-[1,2,4]triazolo[4,3-b]pyridazin-6-yl)-3-(2,2,2-trifluoroethyl)-5,6,7,8-tetrahydro-1,6-naphthyridine] |
| 111 | 0.153 | Cc1cc2nnc(C(F)(F)F)n2nc1N1CCc2ncc(N3CCOc4ncccc43)cc2C1 [Compound 324, 1-(6-(7-methyl-3-(trifluoromethyl)-[1,2,4]triazolo[4,3-b]pyridazin-6-yl)-5,6,7,8-tetrahydro-1,6-naphthyridin-3-yl)-2,3-dihydro-1H-pyrido[2,3-b][1,4]oxazine] |
| 106 | 0.093 | COCc1c(N2CCc3ncc(C(F)(F)F)cc3C2)nn2cnnc2c1C [Compound 349, 6-(7-(Methoxymethyl)-8-methyl-[1,2,4]triazolo[4,3-b]pyridazin-6-yl)-3-(trifluoromethyl)-5,6,7,8-tetrahydro-1,6-naphthyridine] |
| 116 | 0.05 | Cc1cc2nnc(C(F)(F)F)n2nc1N1CCc2ncc(N3CCCn4nccc43)cc2C1 [Compound 325, 3-(6,7-dihydropyrazolo[1,5-a]pyrimidin-4(5H)-yl)-6-(7-methyl-3-(trifluoromethyl)-[1,2,4]triazolo[4,3-b]pyridazin-6-yl)-5,6,7,8-tetrahydro-1,6-naphthyridine] |
